The values that follow come from ChEMBL document CHEMBL3822426, “A cascade screening approach for the identification of Bcr-Abl myristate pocket binders active against wild type and T315I mutant” (Bioorg Med Chem Lett, 2016).

The target in data set [1] is Tyrosine-protein kinase ABL1 (Homo sapiens, UniProt P00519, T315I). Put plainly: Allosteric inhibition of recombinant human N-terminal His6-tagged ABL (27-end residues) T315I mutant expressed in baculovirus infected sf21 cells using Abl-tide as substrate incubated for 10 mins in presence of [gamma32P]ATP by scintillation counting method.
A short description of data set [2]: Cytotoxicity against imatinib mesylate sensitive mouse 32D cells expressing wild type BCR/ABL p210 assessed as reduction in cell viability after 48 hrs by cell counting method. In kind it is functional, cell-based.
Data set [3] concerns Bcr/Abl fusion protein (Homo sapiens), P00519+P11274 [T315I]. Put plainly: Inhibition of BCR/ABL T315I mutant (unknown origin) expressed in mouse 32D cells assessed as reduction in CRKL phosphorylation at Tyr-207 residue at 1 uM after 24 hrs by Western blot analysis. Format: cell-based. In general terms: Immunoblotting shows a protein as a band on a membrane.
A short description of data set [4]: Cytotoxicity against mouse 32D cells assessed as reduction in cell viability at 0.5 to 50 uM after 48 hrs by cell counting method. Format: cell-based.
Data set [5] is described as follows: Cytotoxicity against imatinib mesylate resistant mouse 32D cells expressing BCR/ABL T315I mutant assessed as reduction in cell viability after 48 hrs by cell counting method. Format: functional, cell-based.
For data set [6], the target named is Tyrosine-protein kinase ABL1 (Homo sapiens) (UniProt P00519). Conditions: 50 uM.
Description: Allosteric inhibition of recombinant wild type ABL (unknown origin) assessed as Vmax(app) for ATP at 50 uM incubated for 10 mins in presence of [gamma32P]ATP by scintillation counting method
For data set [7] the target is unchanged. The settings on record: 100 uM.
Description: Allosteric inhibition of recombinant wild type ABL (unknown origin) assessed as Vmax(app) for ATP at 100 uM incubated for 10 mins in presence of [gamma32P]ATP by scintillation counting method
The target is the same in data set [8]. Conditions: 25 uM.
Description: Allosteric inhibition of recombinant wild type ABL (unknown origin) assessed as Vmax(app) for ATP at 25 uM incubated for 10 mins in presence of [gamma32P]ATP by scintillation counting method
The test system of data set [9] is Tyrosine-protein kinase ABL1 (Homo sapiens), P00519 [T315I]. The settings on record: Sf21, 25 uM.
Description: Allosteric inhibition of recombinant human N-terminal His6-tagged ABL (27-end residues) T315I mutant expressed in baculovirus infected sf21 cells assessed as Vmax(app) for ATP at 25 uM incubated for 10 mins in presence of [gamma32P]ATP by scintillation counting method
Data set [10] shares this test system. Conditions: Sf21, 100 uM.
Description: Allosteric inhibition of recombinant human N-terminal His6-tagged ABL (27-end residues) T315I mutant expressed in baculovirus infected sf21 cells assessed as Vmax(app) for ATP at 100 uM incubated for 10 mins in presence of [gamma32P]ATP by scintillation counting method
Data set [11] shares this test system. The settings on record: Sf21, 50 uM.
Description: Allosteric inhibition of recombinant human N-terminal His6-tagged ABL (27-end residues) T315I mutant expressed in baculovirus infected sf21 cells assessed as Vmax(app) for ATP at 50 uM incubated for 10 mins in presence of [gamma32P]ATP by scintillation counting method

The source made the active and inactive calls. No cut-off for these calls is given here.

Broadly, the IC50 is the concentration that inhibits the measured activity by half. In the case of `C(=C\n1ncc2c(N3CCCCCC3)ncnc21)/c1ccccc1`, the concentration for half-maximal inhibition (IC50) was found to be 20 µM in [1], 1.2 µM in [2] and 13.8 µM in [5]. Besides, the inhibition entry in [3] is “Active”. Besides, the Activity result in [4] is recorded as “Non-toxic”.
Consider `C(=C\n1ncc2c(NC3CCCCC3)ncnc21)/c1ccccc1`, for which the results for the IC50 in data set [1], in [2] and in [5] were 50 µM, 8.5 µM and 25.1 µM, respectively. The Vmax(app) in data set [6] amounted to 8.57 pmol/min; in data set [7] it was 5.83 pmol/min; in data set [8], 13.1 pmol/min; in [9] it was 15 pmol/min; in data set [10] it was 4.95 pmol/min; in data set [11], 8.06 pmol/min. The inhibition entry in data set [3] is “Active”. Besides, the Activity result in data set [4] was “Non-toxic”.
